Consider nine compounds from US20170066717A1, “NEW PHENYLAZETIDINECARBOXYLATE OR -CARBOXAMIDE COMPOUNDS” (INVENTIVA, priority 2014, published 2017).

Some results are limits rather than exact numbers.

A short description of data set [1]: Brain penetration in rats after intravenous administration. The data set is classed as in vivo. The settings on record: rat; for Kp at 4 h: male, Wistar, intravenous, 4 mg/kg, ratio of Cmax brain to Cmax plasma after the 4 hours of infusion, rats, read-out: Kp (partition coefficient between the brain and the plasma); for Cmax at 4 h: male Wistar rats, 4 mg/kg iv infusion into the jugular vein for 4 hours, plasma at end of infusion. As to the method:
(§1) Three series of in vivo tests were carried out with compounds representative of the invention, for the purpose of determining their pharmacokinetic plasma profile and their brain penetration.
2. Study of the Brain Penetration in Rats After Intravenous Administration
Male Wistar rats (250-300 g) originating from the establishment Janvier, Le Genest-St-Isle, France were used for this study (4 rats per study). The animals were fed with standard feed for rodents (Purina Mills, St. Louis, Mo.), placed in cages and subjected to light/darkness cycles of 12 h/12 h, the room temperature being maintained at 22±2° C. and the humidity level at 55±10%. The rats were not deprived food before the administration. Water was provided at will throughout the study.
The test compound was administered intravenously at 4 mg/kg by infusion into the jugular vein for 4 hours. For the intravenous administration, the animals were infused with 12 mL/kg of a solution of the test compound, prepared in 2% Cremophor EL/0.9% NaCl.
The animals were sacrificed under anesthesia after 4 hours of infusion. The blood and the brain were collected from each sacrificed animal 0.5 mL of blood collected in 1.5 mL tubes containing 20 μL of evaporated anticoagulant (solution of sodium heparinate at 1000 IU/mL) was centrifuged at 4500 g for 3 min in order to obtain approximately 200 μL of plasma. The plasma was divided up into 2 aliquots of 70 μL minimum, which were stored at −20° C. until they were treated by protein precipitation and then analysis by liquid chromatography coupled to tandem mass spectrometry (LC-MS/MS) in order to quantify the compound tested.
The brains were immersed in liquid nitrogen directly after they were removed, then stored at −20° C. for analysis. The brains were then ground in the presence of an aqueous/organic solvent mixture in order to obtain a homogenate. These homogenates were then centrifuged and the compound tested was extracted from the supernatant obtained, by liquid-liquid extraction, and then quantified by LC-MS/MS.
The brain penetration in the rats is represented by the Kp, which is the partition coefficient between the brain and the plasma. It is calculated by the ratio of the concentration measured in the brain (Cmax brain) and the plasma (Cmax plasma) after the 4 hours of infusion.

The nature of data set [2]: Plasma pharmacokinetics in mice after oral administration. The note with it: mouse, male C57/Bl6 mice, oral 10 mg/kg; for AUC: sampling 15 min to 7 h, log-linear trapezoidal method, read-out: AUCplasma; for Cmax: suspension in 1% methylcellulose/0.1% Poloxamer 188. The class given is in vivo. The method, then:
as §1
1. Study of the Plasma Phannacokinectis in Mice After Oral Administration
Male C57/B16 mice (25-30 g) originating from the establishment Janvier, Le Genest-St-Isle, France were used for this study (9 mice per dose). The animals were fed with standard feed for rodents (Purina Mills, St. Louis, Mo.), placed in cages and subjected to light/darkness cycles of 12 h/12 h, the temperature of the room being maintained at 22±2° C. and the humidity level at 55±10%.
The mice were not deprived food before the administration. Water was provided at will throughout the study. The test compound was admistered orally at 10 mg/kg. For the oral administration at 10 mg/kg, the animals were green, by gavage, 10 mL/kg of a suspension of the test compound, prepared in 1% methylcellulose, 400 cps/0.1% Poloxamer 188/water.
The animals were sacrificed under anesthesia at times 15 min, 30 min, 1 h, 3 h and 7 h after gavage. The blood was collected at each time, and from each animal sacrificed 0.5 mL of blood collected in 1.5 mL tubes containing 20 μL of evaporated anticoagulant (solution of sodium heparinate at 1000 IU/mL) was centrifuged at 4500 g for 3 min in order to obtain approximately 200 μL of plasma. The plasma was divided up into 2 aliquots of 70 μL minimum, which were stoted at −20° C. until they were treated by protein precipitation and then analysis by liquid chromatography coupled to tandem mass spectrometry (LC-MS/MS) in order to quantify the compound tested.
The pharmacokinetic plasma parameters in the mice after oral administration were determined using a non-compartmental approach with the Phoenix WinNonLin software. The area under the curve (AUC0-1) was determined bv the log-linear trapezoidal method. The tesults are brought together in the following table.

A further data set addresses T1, NURR-1/RXRα (Homo sapiens, UniProt P19793).
T1 construct: expressed in transfected cells; host or cells: Cos-7 cells
Description: Transactivation test, NURR-1-Gal4/RXRα, luciferase reporter in Cos-7 cells. The class given is cell-based. The note with it: for EC50: Cos-7 cells, NURR-1-Gal4/RXRα, luciferase reporter, read-out: hNurr1_RXRaFL EC50; for Emax: COS-7, induction level relative to reference XCT0135908 at 2×10^−5 M (=100%), read-out: hNurr1_RXRaFL Emax (%). (In general: Reporter assays use an easily measured gene product as a stand-in for the process of interest.)

Another data set addresses T2, NURR-1/RXRγ (Homo sapiens, UniProt P48443).
T2 construct: expressed in transfected cells; host or cells: Cos-7 cells
The data set is described as follows: Transactivation test, NURR-1-Gal4/RXRγ, luciferase reporter in Cos-7 cells. The class given is cell-based. The settings on record: for EC50: Cos-7 cells, NURR-1-Gal4/RXRγ, luciferase reporter, read-out: hNurr1_RXRgFL EC50; for Emax: COS-7, induction level relative to reference XCT0135908 at 2×10^−5 M (=100%), read-out: hNurr1_RXRgFL Emax (%).

Data set [3] has as its system dopaminergic neurons of primary culture of rat embryo mesencephalon treated with MPP+. Description: Neuroprotection in primary culture of rat embryo mesencephalon treated with MPP+ (count of tyrosine hydroxylase expressing cells). The settings on record: recombinant human BDNF 10 ng/mL = 100%, 2 days with MPP+. The class given is cell-based. The method, then:
Another in vitro test was carried out with the compounds according to the invention, for the purpose of verifying that the molecules indeed have the expected neuroprotective effect in vitro.
The compounds were tested in a model of primary culture of rat embryo mesencephalon treated with 1-methyl-4-phenylpyridinium (MPP+), which is the active metabolite of 1-methyl-4-phenyl-1,2,3,6-tetrahydropyridine (MPTP). MPP+ enters into dopananergic neurons via the dopamine transporter and causes the death of these dopaminergic neurons. The following protocol was used.
Gestating female rats (15 days of gestation) were euthanized and the rat embryos were removed. The mesencephalons were removed. The tissue was then dissociated mechanically and by using trypsin. The cells collected after centrifugation were distributed into 96-well plates and left to stand for 5 days. The culture conditions made it possible to obtain a cell layer composed of neurons (dopaminergic and others) and astrocytes. On the 6th day, the cells were optionally treated with MPP+ in the presence or absence of test compound. After 2 days of incubation, the cells were fixed and various cell labellings were carried out; staining of the nuclei with the Hoechst fluorescent label and immunolabelling of tyrosine hydroxylase. The cells expressing tyrosine hydroxylase were counted using an image analyzer coupled to an optical microscope.
Recombinant human BDNF trophic factor (10 ng/mL) was used as reference. The activities of the compounds are given as percentages of activity relative to the BDNF reference, the activity of which is arbitrarily defined as being equal to 100%.

[4] abbreviates: induction level relative to reference XCT0135908 at 2×10^−5 M (=100%).

T1 sequence (P19793 whole entry): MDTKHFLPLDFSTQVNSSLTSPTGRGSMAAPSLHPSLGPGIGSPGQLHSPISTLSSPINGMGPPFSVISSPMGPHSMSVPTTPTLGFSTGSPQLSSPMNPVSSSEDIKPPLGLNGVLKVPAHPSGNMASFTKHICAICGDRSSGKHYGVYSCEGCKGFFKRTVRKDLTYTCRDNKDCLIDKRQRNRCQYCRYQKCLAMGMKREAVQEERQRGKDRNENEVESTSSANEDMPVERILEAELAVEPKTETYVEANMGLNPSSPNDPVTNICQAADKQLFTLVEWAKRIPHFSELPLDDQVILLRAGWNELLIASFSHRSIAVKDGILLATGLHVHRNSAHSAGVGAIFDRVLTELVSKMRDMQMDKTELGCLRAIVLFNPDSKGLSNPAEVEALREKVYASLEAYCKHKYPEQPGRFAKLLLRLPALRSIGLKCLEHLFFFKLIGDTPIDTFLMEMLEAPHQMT
T1 sequence (P43354 whole entry partner): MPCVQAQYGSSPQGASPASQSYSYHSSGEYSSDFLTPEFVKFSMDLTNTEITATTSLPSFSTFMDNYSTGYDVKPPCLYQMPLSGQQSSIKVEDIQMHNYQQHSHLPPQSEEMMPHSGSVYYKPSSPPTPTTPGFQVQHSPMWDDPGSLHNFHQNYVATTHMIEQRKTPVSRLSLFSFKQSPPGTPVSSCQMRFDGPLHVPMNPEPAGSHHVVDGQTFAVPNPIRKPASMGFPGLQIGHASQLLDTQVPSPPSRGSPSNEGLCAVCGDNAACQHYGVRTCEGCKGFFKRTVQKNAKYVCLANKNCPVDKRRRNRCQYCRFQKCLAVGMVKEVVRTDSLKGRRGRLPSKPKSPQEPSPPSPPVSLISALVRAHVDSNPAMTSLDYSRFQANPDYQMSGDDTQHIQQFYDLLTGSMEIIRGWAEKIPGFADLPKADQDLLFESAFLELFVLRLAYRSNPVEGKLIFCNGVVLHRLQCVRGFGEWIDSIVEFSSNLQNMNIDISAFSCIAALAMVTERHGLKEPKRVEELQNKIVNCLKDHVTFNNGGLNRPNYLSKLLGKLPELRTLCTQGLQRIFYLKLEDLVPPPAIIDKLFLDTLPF
T1 sequence (P04386 1-147 partner limits assumed): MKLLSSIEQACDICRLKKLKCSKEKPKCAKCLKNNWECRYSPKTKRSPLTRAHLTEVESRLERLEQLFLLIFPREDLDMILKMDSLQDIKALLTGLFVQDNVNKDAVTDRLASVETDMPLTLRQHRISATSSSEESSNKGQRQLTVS
T2 sequence (P48443 whole entry): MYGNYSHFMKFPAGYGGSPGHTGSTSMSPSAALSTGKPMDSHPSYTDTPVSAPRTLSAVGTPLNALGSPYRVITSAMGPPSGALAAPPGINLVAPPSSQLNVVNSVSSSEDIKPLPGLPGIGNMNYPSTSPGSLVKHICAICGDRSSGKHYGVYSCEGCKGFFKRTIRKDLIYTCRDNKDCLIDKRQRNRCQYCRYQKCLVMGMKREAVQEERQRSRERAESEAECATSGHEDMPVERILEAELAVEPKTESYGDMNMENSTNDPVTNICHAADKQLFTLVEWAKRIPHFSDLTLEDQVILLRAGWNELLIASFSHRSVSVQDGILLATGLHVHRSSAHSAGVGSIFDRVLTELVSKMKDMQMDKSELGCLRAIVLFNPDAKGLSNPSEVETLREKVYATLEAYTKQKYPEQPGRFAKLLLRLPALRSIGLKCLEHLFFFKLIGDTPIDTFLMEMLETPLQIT
T2 sequence (P43354 whole entry partner): as the sequence (P43354 whole entry partner) above
T2 sequence (P04386 1-147 partner limits assumed): as the sequence (P04386 1-147 partner limits assumed) above

Regarding `CC(C)CC1Oc2cc(C(F)(F)F)ccc2N(c2cccc(N3CC(C(=O)O)C3)c2)C1=O` (single isomer, unassigned; isomer 1) [Example 246-1, 1-[3-[2-isobutyl-3-oxo-7-(trifluoromethyl)-1,4-benzoxazin-4-yl]phenyl]azetidine-3-carboxylate acid, isomer 1], the melting point – broadly, the temperature of the solid-liquid transition – fell in the range of 68 to 74 °C. Further, in data set [1], the Kp (in general, tissue or fluid exposure divided by exposure in the circulation) at 4 h came out at 0.13 and the Cmax (usually the peak of the concentration-time curve) at 4 h came to 5800 ng/mL. Moreover, in data set [2], the AUC was determined as 48200 ng·h/mL and the Cmax is 15200 ng/mL. The EC50 – broadly, the midpoint of the concentration-response curve – at NURR-1/RXRα stood at 7 nM. For the same compound, at NURR-1/RXRα (setting [4]), the “hNurr1_RXRaFL Emax (%)” value was 97%. In addition, the EC50 on NURR-1/RXRγ stood at 50 nM. Also, the “hNurr1_RXRgFL Emax (%)” value at NURR-1/RXRγ (setting [4]) is given as 95%.

With `Cc1cn(-c2cccc(N3CC(C(=O)NCCc4c[nH]cn4)C3)c2)c2ccc(C(F)(F)F)cc12` [Example 155, N-[2-(1H-imidazol-4-yl)ethyl]-1-[3-[3-methyl-5-(trifluoromethyl)indol-1yl]phenyl]azetidine-3-carboxamide], the Emax – broadly, the greatest response seen or fitted, relative to the assay's reference – was 123% on NURR-1/RXRα and 116% at NURR-1/RXRγ. Also, the EC50 turned out to be 4 nM at NURR-1/RXRα and 5 nM on NURR-1/RXRγ. In addition, the entries for the “percentage of activity relative to the BDNF reference” value in data set [3] (compound 1 μM) and in data set [3] (compound 10 μM) were 49% and 94%, respectively.

Regarding `Cc1cn(-c2cccc(N3CC(C(=O)NCCOCCO)C3)c2)c2ccc(C(F)(F)F)cc12` [Example 158, N-[2-(2-hydroxethoxy)ethyl]-1-[3-[3-methyl-5-(trifluoromethyl)indol-1-yl]phenyl]azetidine-3-carboxamide], the Emax worked out at 92% at NURR-1/RXRα and 125% at NURR-1/RXRγ. Further, the EC50 at NURR-1/RXRα is 2 nM; at NURR-1/RXRγ it was 4 nM. Moreover, the entries for the “percentage of activity relative to the BDNF reference” value in data set [3] (compound 1 μM) and in data set [3] (compound 10 μM) were 54% and 77%, respectively.

As for `Cc1cn(-c2cccc(N3CC(C(=O)NCCC#N)C3)c2)c2ccc(C(F)(F)F)cc12` [Example 159, N-(2-cyanoethyl)-1-[3-[3-methyl-5-(trifluoromethyl)indol-1-yl]phenyl]azetidine-3-carboxamide], the Emax turned out to be 115% on NURR-1/RXRα and 110% at NURR-1/RXRγ. Also, the results for the EC50 at NURR-1/RXRα and at NURR-1/RXRγ were 3 nM and 6 nM, respectively. Moreover, the “percentage of activity relative to the BDNF reference” value in data set [3] (compound 1 μM) stood at 73%; in data set [3] (compound 10 μM), 101%.

As to `Cc1cn(-c2cccc(N3CC(C(=O)NCCCn4ccnc4)C3)c2)c2ccc(C(F)(F)F)cc12` [Example 160], the Emax on NURR-1/RXRα turned out to be 115%; on NURR-1/RXRγ, 124%. Also, the EC50 on NURR-1/RXRα turned out to be 15 nM; at NURR-1/RXRγ it was 31 nM. Besides, the “percentage of activity relative to the BDNF reference” value in data set [3] (compound 1 μM) was determined as 54%; in data set [3] (compound 10 μM), 79%.

`COCCNC(=O)C1CN(c2cccc(-n3cc(C)c4cc(C(F)(F)F)ccc43)c2)C1` [Example 173, N-(2-methoxyethyl)-1-[3-[3-methyl-5-(trifluoromethyly)indol-1-yl]phenyl]azetidine-3-carboxamide]: the values for the Emax at NURR-1/RXRα and at NURR-1/RXRγ were 103% and 102%, respectively. Besides, the EC50 on NURR-1/RXRα was < 1 nM; at NURR-1/RXRγ it was 5 nM. In addition, the “percentage of activity relative to the BDNF reference” value in data set [3] (compound 1 μM) is on record as 18%; in data set [3] (compound 10 μM) it was 72%.

On to `CCC1COc2cc(C(F)(F)F)cc(-c3cccc(N4CC(C(=O)O)C4)c3)c2N1` (stereo not drawn) [Example 186, 1-[3-[3-ethyl-7-(trifluoromethyl)-3.4-dihydro-2H-1,4-benzoxazin-5-yl]phenyl]azetidine-3-carboxylic acid], for which the melting point lay within 61 to 64 °C. Further, in data set [1], the Kp at 4 h was 0.15 and the concentration peaked (Cmax at 4 h) at 932 ng/mL. Moreover, in data set [2], the AUC worked out at 12100 ng·h/mL and the Cmax came to 6420 ng/mL. In addition, on NURR-1/RXRα, the Emax worked out at 102% and the EC50 was 3 nM. Further, on NURR-1/RXRγ, the Emax was 94% and the EC50 is 11 nM.

Turning to `CCC1COc2cc(C(F)(F)F)ccc2N1c1cccc(N2CC(C(=O)O)C2)c1` (stereo not drawn) [Example 217, 1-[3-[3-ethyl-7-(trifluoromethyl)-2,3-dihydro-1,4-benzoxazin-4-yl]phenyl]azetidine-3-carboxylic acid], the melting point fell in the range of 61 to 74 °C. In data set [2], the AUC was determined as 30300 ng·h/mL and the Cmax was determined as 10200 ng/mL. For the same compound, on NURR-1/RXRα, the Emax was 109% and the EC50 amounted to 14 nM. In addition, on NURR-1/RXRγ, the Emax turned out to be 125% and the EC50 stood at 46 nM.

Regarding `CNC(=O)C1CN(c2cccc(N3CC(C)(C)Oc4cc(C(F)(F)F)ccc43)c2)C1` [Example 274, 1-[3-[2,2-dimethyl-7-(trifluoromethyl)3H-1,4-nemzoxazin-4-yl]phenyl]-N-methylazetidine-3-carboxamide], in data set [1], the Kp at 4 h was determined as 3.06 and the concentration peaked (Cmax at 4 h) at 337 ng/mL. For the same compound, in data set [2], the AUC turned out to be 576 ng·h/mL and the Cmax came out at 252 ng/mL. In addition, at NURR-1/RXRα, the Emax is 110% and the EC50 stood at 6 nM. Further, on NURR-1/RXRγ, the Emax came out at 110% and the EC50 worked out at 8 nM.
